In US12514866B2, “Method for treating cancer” (National Taiwan University, priority 2021, dated 2026):
“Also recorded” adds a separate entry of the source.

What was measured:
[1] = tested on: A549 lung cancer cells; assay: Real-time impedance (ECIS) monitoring of γδ T cell killing; details: low dose
Method: In addition, real-time monitoring of γδ T-mediated killing of cancer cells was performed using the Electric Cell-Substrate Impedance Sensing (ECIS) monitoring system with an 8W10E+ culture chamber (Applied Biophysics). Mock or DAC-treated cancer cells were cultured in the chamber at 37° C. overnight until the cancer cells were fully attached to the bottom of the wells. Following the addition of γδ T cells, the detachment of cancer cells indicating cell death was recorded in real-time using multiple frequency capture with the ECIS software. Relative impendence at the time of γδ T cell addition was used for between-sample normalization.

[2] = tested on: A549 human lung cancer cells; assay: SILAC-based quantitative surface proteomics of decitabine-treated cells; assay type: cell-based; details: A549, both D3 and D3R3, 100 nM
Method: (§1) For drug treatment experiments, cells were cultured with 100 nM decitabine (DAC; A3656, Sigma-Aldrich) for three days with daily change of complete medium and drug replenishment, followed by 3 to 4 days of cell recovery in the decitabine-free medium. To block the DAC's effect on immune synapse formation via actin cytoskeleton reorganization, the DAC-pretreated (D3R3) cells were treated with 1 μg/mL cytochalasin B (Cyto B; C6762, Sigma-Aldrich) for 1.5 hours prior to coculture with γδ T cells.
(§2) For quantitative mass spectrometry analysis, lung cancer cells were cultured for at least seven cell doublings in SILAC RPMI medium (88365, Thermo Fisher Scientific) supplemented with 10% FBS and heavy isotope-labeled amino acids (L-Lysine 13C6, L-Arginine 13C6) (CLM-2247-H-1, CLM-2265-H-1, Cambridge Isotope Laboratories). DAC-treated cells grown in the regular medium were considered as SILAC light counterparts.
(§3) Cancer cells (around 1.5×10^7 cells) were grown in a 15-cm culture dish and washed with ice-cold PBS (21040CM, Corning) before the labeling. […] The protein concentration of the supernatants was determined using Pierce 660 nm Protein Assay Reagent Kit (22660, Thermo Fisher Scientific) supplemented with Ionic Detergent Compatibility Reagent (22663, Thermo Fisher Scientific). […]

[3] = tested on: A549, H1299 and CL1-0 human lung cancer cell lines; assay: SILAC-based surface proteomics compared across cell lines; details: D3R3, A549, H1299, CL1-0
Method: as §1, §2, §3

[4] = tested on: H1299 lung cancer cells; assay: Immunofluorescence imaging of immune synapses between cancer and γδ T cells; assay type: cell-based, human
Method: as §1
Cancer and γδ T cells were spun down onto poly-L-lysine coated coverslips by using a Cyto-Tek table-top cytofuge at 500 rpm for 5 minutes (Sakura Scientific) before fixation with ice-cold methanol or 4% (w/v) paraformaldehyde in PBS for 10 minutes. The fixed samples were blocked in detergent-free blocking solution [1% normal donkey serum (ab7475, abcam) and 3% BSA in PBS] without membrane permeabilization by detergents. Subsequently, cells were incubated with primary antibodies diluted in the blocking solution for 1 hour in a moist chamber at room temperature and washed with PBS. Labeling of fluorescent secondary antibodies at 1:200 dilution in PBS was carried out in the blocking buffer for 1 hour at room temperature. After PBS washing, cell nuclei were stained with Hoechst 33342 or DAPI (62248, Thermo Fisher Scientific) in PBS. Finally, the samples were washed with PBS and mounted on the slides. All slides were examined under an epifluorescence microscope EVOS FLc (Invitrogen), and the images were analyzed using the ImageJ software. For the visualization of immune synaptic proteins, cells were imaged with a high-resolution confocal microscope (LSM780, Zeiss) with a 63×oil objective and analyzed with the confocal software ZEN (Zeiss).

[5] = DAC D3R3 plus 1 μg/mL Cyto B 1.5 hours

Row | SMILES | Cytotoxicity / cell viability with DAC alone [1] | Number of proteins with sustained upregulation by at least 1.4-fold [2] | Number of proteins commonly upregulated in all three lung cancer cell lines [3] | DAC-induced F-actin clustering and pTyr signaling at immune synapses [4, 5] | ICAM-1 expression at immune synapses [4, 5] | DAC effects on width of the synaptic cleft ([4]; DAC plus Cyto B) | DAC's enhancing effects on immune synapse formation ([4]; DAC plus Cyto B)
1 | Nc1ncn([C@H]2C[C@H](O)[C@@H](CO)O2)c(=O)n1 [DAC, decitabine] | does not cause significant cytotoxicity; also recorded: minimal effects on cell viability | 314 | 431 |  |  |  | 
2 | C=C1[C@@H](C)[C@H]2[C@H](Cc3ccccc3)NC(=O)[C@]23OC(=O)/C=C/[C@H](O)CCC[C@@H](C)C/C=C/[C@H]3[C@@H]1O [cytochalasin B] |  |  |  | abolished | minimal effects | diminished | significantly counteracted
